Here are results for four molecules from US5439887A, “Peptide having antihypertensive activity free of vascoconstrictor activity” (Roussel-Uclaf, priority 1992, dated 1995).

Usually IC50 stands for the concentration that gives 50% inhibition.

Bridge positions count the residues as written; N and C are the ends. Peptide text beside a SMILES is read from it.

This assay has as its target endothelin receptor. Put plainly: [125I]endothelin displacement from rat posterior cortex plus cerebellum membranes. The assay is classed as binding. The conditions noted are these: displacement of [125I]endothelin, rat brain membranes, 25° C., 60 minutes. How it is done:
A membrane preparation was made from rat posterior cortex plus cerebellum and the tissue was ground using a POLYTRON in 50 mM Tris buffer pH 7.4. After 30 minutes at 25° C. (water bath), the homogenate was centrifuged at 30,000 g for 15 minutes (2 centrifugations interspersed by taking up in Tris buffer pH 7.4).
The pellets were resuspended in an incubation buffer (25 mM Tris, pepstatin A 5 μg/ml, aprotinin 3 μg/ml, 0.1 mM PMSF, 3 mM EDTA, 1 mM EGTA pH 7.4).
2 ml aliquots were distributed in haemolysis tubes and [125 I]endothelin (approximately 50,000 dpm/tube) and the test product were added. The product was first tested at […] in triplicate. When the test product displaced by more than 50% the radioactivity specifically bound to the receptor, it was tested again in a series of 7 concentrations to determine the concentration which inhibited by 50% the radioactivity specifically bound to the receptor. The 50% inhibitory concentration was thereby determined.
Non-specific binding was determined by adding 10^-6 M endothelin (in triplicate). The preparation was incubated at 25° C. for 60 minutes, put back on a water bath at 0° C. for 5 minutes, filtered off under reduced pressure and rinsed with […] Tris buffer pH 7.4, and the radioactivity was counted in the presence of Triton scintillant. The result was expressed directly as a 50% inhibitory concentration (IC50), that is to say as a concentration of test product, expressed in nM, required to displace 50% of the specific radioactivity bound to the receptor under study.
On the technique in general: In a radioligand displacement assay an active substance lowers the binding of a labelled ligand.
On to `CC[C@H](C)[C@H](NC(=O)[C@H](CC(=O)O)NC(=O)[C@H](CC(C)C)NC(=O)[C@H](Cc1c[nH]cn1)NC(=O)[C@@H]1CSSC[C@H](NC(=O)[C@@H](N)CO)C(=O)N[C@@H](Cc2ccccc2)C(=O)N[C@@H](CO)C(=O)N[C@@H](CO)C(=O)N[C@@H](CC(C)C)C(=O)N[C@@H](CC(=O)O)C(=O)N[C@@H](CCCCN)C(=O)N[C@@H](CCC(=O)O)C(=O)N[C@@H](C)C(=O)N[C@@H](C(C)C)C(=O)N[C@@H](Cc2ccc(O)cc2)C(=O)N[C@@H](Cc2ccccc2)C(=O)N1)C(=O)N[C@H](C(=O)N[C@@H](Cc1c[nH]c2ccccc12)C(=O)O)[C@@H](C)CC` [Example 15] (H-SCFSSLDKEAVYFCHLDIIW-OH; disulfide 2-14), for which the 50% inhibitory concentration (IC50) was 17 nM.

In the case of `CC[C@H](C)[C@H](NC(=O)[C@H](CC(=O)O)NC(=O)[C@H](CC(C)C)NC(=O)[C@H](Cc1c[nH]cn1)NC(=O)[C@@H]1CSSC[C@H](NC(=O)[C@@H](N)CO)C(=O)N[C@@H](CC(N)=O)C(=O)N[C@@H](CO)C(=O)N[C@@H](Cc2c[nH]c3ccccc23)C(=O)N[C@@H](CC(C)C)C(=O)N[C@@H](CC(=O)O)C(=O)N[C@@H](CCCCN)C(=O)N[C@@H](CCC(=O)O)C(=O)N[C@@H](C)C(=O)N[C@@H](C(C)C)C(=O)N[C@@H](Cc2ccc(O)cc2)C(=O)N[C@@H](Cc2ccccc2)C(=O)N1)C(=O)N[C@H](C(=O)N[C@@H](Cc1c[nH]c2ccccc12)C(=O)O)[C@@H](C)CC` [Example 16] (H-SCNSWLDKEAVYFCHLDIIW-OH; disulfide 2-14), the concentration for half-maximal inhibition (IC50) came out at 7.2 nM.

On to `CC[C@H](C)[C@H](NC(=O)[C@H](CC(=O)O)NC(=O)[C@H](CC(C)C)NC(=O)[C@H](Cc1c[nH]cn1)NC(=O)[C@@H]1CSSC[C@H](N)C(=O)N[C@@H](CO)C(=O)N[C@H]2CSSC[C@H](NC(=O)[C@H](CCC(=O)O)NC(=O)[C@H](CCCCN)NC(=O)[C@H](CC(=O)O)NC(=O)[C@H](CC(C)C)NC(=O)[C@H](CC(=O)O)NC(=O)[C@H](CO)NC(=O)[C@H](Cc3ccccc3)NC2=O)C(=O)N[C@@H](C(C)C)C(=O)N[C@@H](Cc2ccc(O)cc2)C(=O)N[C@@H](Cc2ccccc2)C(=O)N1)C(=O)N[C@H](C(=O)N[C@@H](Cc1c[nH]c2ccccc12)C(=O)O)[C@@H](C)CC` [Example 9] (H-CSCFSDLDKECVYFCHLDIIW-OH; disulfide 1-15, 3-11), for which the IC50 was determined as 2.4 nM.

On to `CC[C@H](C)[C@H](NC(=O)[C@H](CC(=O)O)NC(=O)[C@H](CC(=O)O)NC(=O)[C@H](Cc1c[nH]cn1)NC(=O)[C@@H]1CSSC[C@H](N)C(=O)N[C@@H](CO)C(=O)N[C@H]2CSSC[C@H](NC(=O)[C@H](CCC(=O)O)NC(=O)[C@H](CCCCN)NC(=O)[C@H](CC(=O)O)NC(=O)[C@H](CC(C)C)NC(=O)[C@H](Cc3c[nH]c4ccccc34)NC(=O)[C@H](CO)NC(=O)[C@H](CC(N)=O)NC2=O)C(=O)N[C@@H](C(C)C)C(=O)N[C@@H](Cc2ccc(O)cc2)C(=O)N[C@@H](Cc2ccccc2)C(=O)N1)C(=O)N[C@H](C(=O)N[C@@H](Cc1c[nH]c2ccccc12)C(=O)O)[C@@H](C)CC` [Example 12] (H-CSCNSWLDKECVYFCHDDIIW-OH; disulfide 1-15, 3-11), for which the IC50 was found to be 6.8 nM.
